Results: patent publication US20150284380A1, “NOVEL HETEROCYCLIC COMPOUNDS AS PEST CONTROL AGENTS” (BAYER CROPSCIENCE AG, priority 2012, published 2015)
Where two headings read alike, the source gives them in different places.

Legend:
[1] = logP by HPLC-MS (HCOOH or neutral)
[2] = test system: green peach aphid (Myzus persicae); experiment: Myzus persicae spray test; format: in vivo; conditions: foliar, 144 h, read-out: efficacy in % (aphids killed)
Procedure: Myzus persicae—Spray Test
Solvent: 78 parts by weight of acetone • • 1.5 parts by weight of dimethylformamide
Emulsifier: 0.5 parts by weight of alkylaryl polyglycol ether
To produce a suitable active compound formulation, 1 part by weight of active compound is mixed with the stated amounts of solvent and emulsifier, and the concentrate is diluted with emulsifier-containing water to the desired concentration.
Discs of Chinese cabbage leaves (Brassica pekinensis) infested by all stages of the green peach aphid (Myzus persicae) are sprayed with an active compound formulation of the desired concentration.
After 6 days, the efficacy in % is determined. 100% means that all the aphids have been killed; 0% means that none of the aphids have been killed.

[3] = HCOOH (formic acid), logP (HCOOH), HPLC-MS, HCOOH
[4] = application rate 500 g/ha, spray on infested Chinese cabbage leaf discs, after 6 days
[5] = logP (neutral), HPLC-MS, neutral

Row | chromatographic logP [1, 3] | Structure (SMILES) | pest or weed control at 500 g/ha [2, 4] [%] | other results
1 | 1.76 | c1cnc(-c2cccc(-c3cnc(-c4cncs4)s3)n2)nc1 [Example 1, 5-[6-(Pyrimidin-2-yl)pyridin-2-yl]-2,5′-bi-1,3-thiazole] | 80 | logP (HCOOH) ([1]; HPLC-MS, HCOOH): 1.74
2 | 1.65 | c1cnc(-c2cccc(-c3cnn(-c4cnsc4)c3)n2)nc1 [Example 2, 2-{6-[1-(isothiazol-4-yl)-1H-pyrazol-4-yl]pyridin-2-yl}pyrimidine] |  | chromatographic logP [1, 5]: 1.64
3 | 1.37 | c1cnc(-c2cccc(-c3cnc(-c4ccnnc4)s3)n2)nc1 [Example 3, 4-{5-[6-(Pyrimidin-2-yl)pyridin-2-yl]-1,3-thiazol-2-yl}pyridazine] | 90 | chromatographic logP ([1]; neutral, logP (neutral), HPLC-MS): 1.4
4 | 1.36 | CS(=O)(=O)NC(=O)c1cccc(-c2cnc(-c3ccnnc3)s2)n1 [Example 4] | 100 | 
5 | 1.23 | c1cnc(-c2cccc(-c3cnn(-c4ccnnc4)c3)n2)nc1 [Example 5] | 90 | 
6 | 1.65 | c1cnc(-c2cccc(-c3cnn(-c4cnccn4)c3)n2)nc1 [Example 6] | 100 | 
7 | 1.37 | Cn1cc(-n2cc(-c3cccc(-c4ncccn4)n3)cn2)cn1 [Example 7] | 100 | 
8 |  | Cn1cc(-c2ncc(-c3cccc(-c4ncccn4)n3)s2)cn1 [Example 8, 2-{6-[2-(1-Methyl-1H-pyrazol-4-yl)-1,3-thiazol-5-yl]pyridin-2-yl}pyrimidine] | 100 | chromatographic logP [1, 5]: 1.56
9 |  | c1cnc(-c2cccc(-c3cnc(-c4cn[nH]c4)s3)n2)nc1 [Example 9, 2-{6-[2-(1H-Pyrazol-4-yl)-1,3-thiazol-5-yl]pyridin-2-yl}pyrimidine] |  | chromatographic logP [1]: 1.35; pest or weed control at 500 g/ha ([2]; in Brassica rapa): 90%
10 | 1.91 | c1cnc(-c2cccc(-c3cnc(-c4cnsc4)s3)n2)nc1 [Example 10] |  | 
11 | 3.13 | FC(F)(F)c1cccc(-c2cnc(-c3cnsc3)s2)n1 [Example 11] | 90 | 
12 | 1.9 | CS(=O)(=O)NC(=O)c1cccc(-c2cnc(-c3cnsc3)s2)n1 [Example 12] | 90 | 
